Measured values published in PMC8071358, “Targeting of the Essential acpP, ftsZ, and rne Genes in Carbapenem-Resistant Acinetobacter baumannii by Antisense PNA Precision Antibacterials” (Biomedicines, 2021).

How the values were obtained:
CRAB strain AC3 = test: BPP-PNA MIC, broth microdilution; format: cell-based, Acinetobacter baumannii; conditions: MHB without cation (Oxoid); 37 °C, 18 h
Outline: (§1)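 Non-cation-adjusted MHB, inoculum ~5 × 10^5 CFU/mL; BPP-PNA 2-fold series prepared at 16–0.5 µM before addition to wells. 37 °C, 18 h, linear shaking, OD 595 nm every 20 min. ≥2 biological × 2 technical replicates.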

CRAB strain AC44 = test: BPP-PNA MIC, broth microdilution; format: cell-based, Acinetobacter baumannii; conditions: 37 °C, 18 h
Outline: as §1

CRAB strain AC1 = test: BPP-PNA MIC, broth microdilution; format: cell-based, Acinetobacter baumannii; conditions: MHB without cation (Oxoid); 37 °C, 18 h
Outline: as §1

A. baumannii ATCC 19606 [1] = test: BPP-PNA MIC, broth microdilution; format: cell-based, Acinetobacter baumannii; conditions: 37 °C, 18 h
Outline: as §1

CRAB strain AC8 = test: BPP-PNA MIC, broth microdilution; format: cell-based, Acinetobacter baumannii; conditions: MHB without cation (Oxoid); 37 °C, 18 h
Outline: as §1

CRAB strain AC6 = test: BPP-PNA MIC, broth microdilution; format: cell-based, Acinetobacter baumannii; conditions: MHB without cation (Oxoid); 37 °C, 18 h
Outline: as §1

CRAB strain AC9 = test: BPP-PNA MIC, broth microdilution; format: cell-based, Acinetobacter baumannii; conditions: MHB without cation (Oxoid); 37 °C, 18 h
Outline: as §1

CRAB strain AC4 = test: BPP-PNA MIC, broth microdilution; format: cell-based, Acinetobacter baumannii; conditions: MHB without cation (Oxoid); 37 °C, 18 h
Outline: as §1

CRAB strain AC5 = test: BPP-PNA MIC, broth microdilution; format: cell-based, Acinetobacter baumannii; conditions: MHB without cation (Oxoid); 37 °C, 18 h
Outline: as §1

CRAB strain AC2 = test: BPP-PNA MIC, broth microdilution; format: cell-based, Acinetobacter baumannii; conditions: 37 °C, 18 h
Outline: as §1

A. baumannii ATCC 19606 [2] = test: Time-kill assay; format: cell-based, Acinetobacter baumannii; conditions: ~10^6 CFU/mL, 37 °C, MHB without cation (Sigma)
Method: Bacterial cultures were harvested at 0, 90 min, 3 and 6 h. The content of each well was added to 0.9 mL of MHB and centrifuged at 9300× g for 5 min. Supernatants were removed and the cell pellets were suspended in fresh pre-warmed MHB (100 μL). Tenfold serial dilution were prepared, and 10 μL aliquots were plated on Mueller–Hinton agar and incubated overnight at 37 °C to determine the CFU/mL [17].

A. baumannii ATCC 19606 [3] = test: Envelope disruption, Sytox green uptake; format: cell-based, Acinetobacter baumannii; conditions: fluorescence over 90 min, 37 °C
Method: A culture of A. baumannii ATCC 19606 was grown in MHB (195 rpm at 37 °C), until OD595 = 0.4. Then, bacterial cells were pelleted by centrifugation, washed with 0.9% NaCl, and resuspended in MHB at an OD595 = 0.1. Sytox green dye (Invitrogen) was added to the bacterial culture at a concentration of 2 µM followed by incubation for 5 min at 37 °C, followed by addition of the desired amount of BPP–PNA in a 96-well plate format. Fluorescence intensity (λex = 480 nm, λem = 520 nm) was measured every 5 min for 90 min at 37 °C with continuous shaking.

P. aeruginosa (PAO1) = test: BPP-PNA MIC, broth microdilution; format: cell-based, Pseudomonas aeruginosa; conditions: non-target species; MHB without cation (Oxoid)
Method: (§2) MIC values were determined by broth microdilution according to standard protocols with a few modifications. An overnight bacterial cell culture was diluted to approximately 5 × 10^5 CFU/mL in non-cation-adjusted Muller Hinton Broth (MHB). Then, 180 µL bacterial solutions were dispensed into a low-bind 96-well plate (Thermo-Scientific, Roskilde, Denmark) along with 20 µL of BPP-PNA compound (BPP-PNA was serially diluted 2-fold from 16 to 0.5 µM in a 96-well plate). The plate was incubated in a Tecan Genios plate reader (GMI, Minnesota, Ramsey, USA) at 37 °C for 18 h with linear shaking, OD was measured every 20 min at 595 nm. […] The minimum bactericidal concentration (MBC) values were determined by plating 10 µL samples from the wells with no visible turbidity onto Mueller–Hinton agar plates. The MBC is determined the lowest concentration of BPP-PNA that reduces the viability of the initial bacterial inoculum by ≥99.9% (3-log reduction in CFU/mL). A minimum of two independent experiments (biological replicates) of the assay were conducted, and two technical replicates were used in each experiment for each bacterium, compound, and concentration.

CRAB strains = test: BPP-PNA MIC/MBC summarised over the panel of strains; format: cell-based, Acinetobacter baumannii; conditions: for bactericidal concentration relative to MIC: CRAB strains; for MIC (complete growth inhibition) over the CRAB strains tested: several A. baumannii strains
Method: as §2

A. baumannii SSI1104 = test: BPP-PNA MIC, broth microdilution; format: cell-based, Acinetobacter baumannii; conditions: 37 °C, 18 h
Outline: as §1

CRAB strain AC46 = test: BPP-PNA MIC, broth microdilution; format: cell-based, Acinetobacter baumannii; conditions: 37 °C, 18 h
HepG2 hepatocytes = test: HepG2 cell toxicity (CellTiter-Glo, ATP); format: cell-based; conditions: HepG2, 2–4 µM, ATP level
Method: The cell toxicity of selected BPP-PNAs was determined using HepG2 hepatocytes grown in DMEM (low glucose) medium supplemented with 100 U/mL penicillin, 100 µg/mL streptomycin, 1% glutamax, and 10% fetal bovine serum (FBS) (Thermofisher Scientific, Roskilde, Denmark), at 37 °C with 5% CO2. Then, 7000–10,000 cells were seeded in each well of a 96-well plate. After 48 h, the BPP-PNAs were added (six replicates for each concentration), followed by overnight incubation. Total amount of adenosine triphosphate (ATP) was used as a measure of cell viability, according to the CellTiter-Glo luminescent cell viability assay (Promega, Madison, WI, USA) kit. BPP-PNAs concentrations ranged from 2.5 to 20 µM. Potassium dichromate (100 µM) was used as a positive control.

E. coli K-12 MG1655 = test: BPP-PNA MIC, broth microdilution; format: cell-based, Escherichia coli; conditions: non-target species; MHB without cation (Oxoid)
Method: as §2

[4] = Oxoid MHB medium, cation adjusted
[5] = Sigma MHB medium without cation

## H-(KFF)3K-eg1-GAGGCCATGAC-NH2 (antisense; N-terminal (KFF)3K-eg1 peptide, C-terminal amide, backbone not given here, further chemistry not given here) [PNA 5612, anti-ftsZ peptide-PNA conjugate, match, −3 to +8]
CRAB strain AC3
  MIC, AC3: 4 µM
CRAB strain AC44; MHB without cation (Oxoid)
  MIC, AC44: 8 µM
CRAB strain AC1
  MIC, AC1: 4 µM
A. baumannii ATCC 19606 [1]; MHB without cation (Oxoid)
  MIC, ATCC 19606: 4 µM
CRAB strain AC8
  MIC, AC8: 8 µM
CRAB strain AC6
  MIC, AC6: 4 µM
CRAB strain AC9
  MIC, AC9: 2 µM
CRAB strain AC4
  MIC, AC4: 8 µM
CRAB strain AC5
  MIC, AC5: 4 µM
CRAB strain AC2; MHB without cation (Oxoid)
  MIC, AC2: 2 µM
A. baumannii ATCC 19606 [2]; 4 μM, after 3 h
  CFU reduction in time-kill: more than three order of magnitude CFU reduction
A. baumannii ATCC 19606 [3]; 8 µM
  membrane disruption activity (Sytox uptake): only a minimal effect
A. baumannii ATCC 19606 [3]; 2× MIC concentration (4 µM)
  membrane disruption activity (Sytox uptake): no indication of membrane disruption activity
P. aeruginosa (PAO1)
  MIC, P. aeruginosa (PAO1): >16 µM
CRAB strains
  concentration with bactericidal activity against carbapenem-resistant A. baumannii: 4 µM
  bactericidal concentration relative to MIC: 1–2 × MIC
  MIC (complete growth inhibition) over the CRAB strains tested: 2 to 8 µM
CRAB strains; 12 CRAB clinical isolates (Table 3)
  MIC range against 12 multidrug resistant clinical isolates: 2 to 8 µM
CRAB strains; 12 multidrug resistant clinical isolates, 5612 vs 5615
  match/mismatch ratio of MIC: 2–8 fold
CRAB strains; over the CRAB and ATCC 19606 strains of Table 3, MHB without cation (Oxoid)
  MIC50: 4 µM
CRAB strains; strains of Table 2 (5612 vs 5615) or Table 4 (5656 vs 5822)
  MIC of match PNA lower than mismatch control (mismatch discrimination): 2–4 fold
A. baumannii SSI1104; MHB without cation (Oxoid)
  MIC, SSI 1104: 4 µM
CRAB strain AC46; MHB without cation (Oxoid)
  MIC, AC46: 8 µM
HepG2 hepatocytes
  reduction in cell viability at MIC50 concentration: no reduction in viability
E. coli K-12 MG1655
  MIC, E. coli K-12 MG1655: >16 µM

## H-(KFF)3K-eg1-TGATTTGCCAC-NH2 (antisense; N-terminal (KFF)3K-eg1 peptide, C-terminal amide, backbone not given here, further chemistry not given here) [PNA 5639, anti-acpP peptide-PNA conjugate, match, +1 to +11]
CRAB strain AC44; [4]
  MIC, AC44: 4 µM
CRAB strain AC44; [5]
  MIC, AC44: 1 µM
A. baumannii ATCC 19606 [1]; MHB without cation (Oxoid)
  MIC, ATCC 19606: 2 µM
A. baumannii ATCC 19606 [1]; [4]
  MIC, ATCC 19606: 4 µM
A. baumannii ATCC 19606 [1]; Sigma MHB medium without cation, ~5 × 10^5 CFU/mL, OD595 < 0.1
  MIC, ATCC 19606: 2 µM
CRAB strain AC2; [4]
  MIC, AC2: 4 µM
CRAB strain AC2; [5]
  MIC, AC2: 1 to 2 µM
A. baumannii ATCC 19606 [2]; 4 or 8 μM, after 3 h treatment
  CFU reduction in time-kill: 4 log
A. baumannii ATCC 19606 [3]; 8 µM
  membrane disruption activity (Sytox uptake): only a minimal effect
A. baumannii ATCC 19606 [3]; 2× MIC concentration (4 µM)
  membrane disruption activity (Sytox uptake): no indication of membrane disruption activity
P. aeruginosa (PAO1)
  MIC, P. aeruginosa (PAO1): >16 µM
CRAB strains
  concentration with bactericidal activity against carbapenem-resistant A. baumannii: 4 µM
  bactericidal concentration relative to MIC: 1–2 × MIC
  MIC (complete growth inhibition) over the CRAB strains tested: 1 to 2 µM
CRAB strains; cation adjusted MHB against MHB without cation
  decrease of potency in cation adjusted MHB: 1–4 fold
A. baumannii SSI1104; MHB without cation (Oxoid)
  MIC, SSI 1104: 2 µM
A. baumannii SSI1104; [4]
  MIC, SSI 1104: 4 µM
A. baumannii SSI1104; [5]
  MIC, SSI 1104: 2 µM
CRAB strain AC46; [4]
  MIC, AC46: 4 µM
CRAB strain AC46; [5]
  MIC, AC46: 1 µM
HepG2 hepatocytes
  reduction in cell viability at MIC50 concentration: no reduction in viability
E. coli K-12 MG1655
  MIC, E. coli K-12 MG1655: >16 µM
